# Where a name gives a salt, the structure may show the parent alone.
# Tests used:
# [1] = system: patient diagnosed as having autism; experiment: Administration of SCH 39166 capsules to a patient with autism; assay type: in vivo, human; conditions: capsules of Example 1 containing 25.0 mg SCH 39166, once a day, six months
# [2] = system: patient diagnosed with obsessive-compulsive disorder; experiment: Administration of SCH 39166 capsules to a patient with obsessive-compulsive disorder; assay type: in vivo, human; conditions: capsules of Example 1 containing 5.0 mg SCH 39166, once a day, six months
structure (smiles),measurement,setting,value
"CN1CCc2cc(Cl)c(O)cc2[C@H]2c3ccccc3CC[C@@H]21 [SCH 39166, (−)-trans-6,7,7a, 8,9,13b-hexahydro-3-chloro-2-hydroxy-N-methyl-5-H-benzo[d]naphtho{2,1-b}azepine HCl]",observable symptoms of the disorder,[1],reducing or eliminating the observable symptoms of the disorder
same,observable symptoms of the disorder,[2],reducing or eliminating the observable symptoms of the disorder

# — patent US6410527B1, “Method of treating obsessive compulsive disorders, somatoform disorders, dissociative disorders, eating disorders, impulse control disorders, and autism” (Schering Corporation, priority 1998, dated 2002)
